From PMC4861708 (Frontiers in Cell and Developmental Biology, 2016)
Where a SMILES comes first, the peptide text is derived from it. [ ]: non-standard residue; d: D form. The star is where a group is joined. Orn(α-tetramethylguanidino) = CN(C)C(=N[C@@H](CCCN)C(=O)*)N(C)C; Orn = NCCC[C@H](N)C(=O)O

Tests used:
P. aeruginosa DSM 1117 = experiment: Transmission electron microscopy, morphological changes; format: cell-based, Pseudomonas aeruginosa; conditions: 1 h
Protocol: (§1) Peptide-bacteria mixtures were fixed (2% glutaraldehyde, 5 mmol/L CaCl2, 10 mmol/L MgCl2 in 0.1 mol/L sodium cacodylate buffer, pH 7.4) overnight at 4°C. […] Samples were rinsed with distilled water (5 × 10 min), incubated with aqueous uranylacetate (0.5% w/v) for 1 h at 4°C, washed with distilled water (3 × 10 min), and embedded in Epon. The hardened blocks were sectioned (50 nm) on a UCT ultramicrotome (Leica, Vienna, Austria), stained with uranyl acetate and lead citrate on an AC20 system (Leica), and visualized at a Tecnai 12 electron microscope (FEI, Eindhoven, The Netherlands) at 80 kV. Morphological effects were quantified on average for 25 cells per condition.

E. coli DSM 1103 = experiment: as above; format: cell-based, Escherichia coli; conditions: 1 h
Protocol: as §1

P. aeruginosa elastase = molecular target: T1, P. aeruginosa elastase (Pseudomonas aeruginosa, UniProt P14756); experiment: Elastase assay (proteolytic stability); format: in vitro ADME; conditions: Pseudomonas aeruginosa, isolated enzyme elastase; after 6 h, elastase 12 units/mL, pH 8.3, 37°C; read-out: Peptide remaining with elastase
T1 construct: purchased Merck (Darmstadt, Germany)
Protocol: A stock solution of P. aeruginosa elastase (0.26 U/μL) was prepared in Tris-HCl (5 mmol/L, pH 8.3) and stored at −80°C. Peptides (0.5 g/L in 5 mmol/L Tris-HCl, pH 8.3) were incubated with elastase (0.012 U/μL) at 37°C under constant shaking (450 rpm) for 0, 0.5, 2, 4, and 6 h. Aliquots (10.5 μL) were precipitated with a mixture of acetonitrile and ethanol (1:1 v/v) containing 0.1% TFA (21 μL), centrifuged, the supernatant transferred into a new tube, and dried in vacuum. Samples were dissolved in aqueous acetonitrile (3% v/v) containing TFA (0.1% v/v) and analyzed by RP-HPLC using the conditions described above.

[1] = system: P. aeruginosa DSM 1117 (ATCC 27853); format: cell-based, Pseudomonas aeruginosa; conditions: DSM 1117, 24 h
Protocol: (§2) MICs of P. aeruginosa strains DSM 1117 (ATCC 27853), DSM 3227 (ATCC 19429), and DSM 9644 were determined in a microdilution broth assay using 50 or 100% MHB (11.5 and 23 g/L MHB, respectively) whereas MICs of E. coli DSM 1103 (ATCC 25922) and K. pneumoniae DSM 681 (ATCC 10031) were determined in TSB (30 g/L TSB). Peptides (1 g/L in water) were serially two-fold diluted in a 96-well microtiter plate (PS, sterile, flat bottom) in 50 μL of the corresponding medium to final concentrations of 512–4 μg/mL. Bacteria were grown in nutrient broth overnight and diluted to a cell concentration of 1.5 × 10^7 cells/mL in the corresponding medium. Cell densities were determined by using the McFarland standard as reference. An aliquot (50 μL) of the cell culture was added to each well and incubated (37°C, 24 h). The OD595 was determined in a SpectraMax 340PC (Molecular Devices, Sunnyvale, USA). Additionally, MIC values were also determined for high bacteria densities (5 × 10^8 cells/mL) corresponding to the conditions used for TEM, as described above.

[2] = system: K. pneumoniae DSM 681 (ATCC 10031); format: cell-based, Klebsiella pneumoniae; conditions: DSM 681, 24 h
Protocol: as §2

T1 sequence (P14756 198-498): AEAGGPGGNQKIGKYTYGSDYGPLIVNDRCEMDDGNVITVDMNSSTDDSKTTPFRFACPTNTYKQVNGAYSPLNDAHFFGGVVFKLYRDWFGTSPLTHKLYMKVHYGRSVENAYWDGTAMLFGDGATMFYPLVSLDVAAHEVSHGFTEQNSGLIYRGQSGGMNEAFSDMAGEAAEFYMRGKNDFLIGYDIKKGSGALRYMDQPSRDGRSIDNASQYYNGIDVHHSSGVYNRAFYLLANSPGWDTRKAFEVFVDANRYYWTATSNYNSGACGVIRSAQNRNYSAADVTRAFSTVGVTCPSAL

CC(C)C[C@H](NC(=O)[C@H](CCCNC(=N)N)NC(=O)[C@@H]1CCCN1C(=O)[C@H](Cc1c[nH]cn1)NC(=O)[C@@H]1CCCN1C(=O)[C@@H]1CCCN1C(=O)[C@H](CCCNC(=N)N)NC(=O)[C@@H]1CCCN1C(=O)[C@H](CCCNC(=N)N)NC(=O)[C@@H]1CCCN1C(=O)[C@H](CCCN)NC(=O)[C@H](Cc1ccc(O)cc1)NC(=O)[C@@H](NC(=O)[C@@H]1CCCN1C(=O)[C@H](CCCNC(=N)N)NC(=O)[C@H](CCCN)NC(=O)[C@H](Cc1c[nH]c2ccccc12)NC(=O)[C@H](CCCN)NC(=O)[C@H](Cc1c[nH]c2ccccc12)NC(=O)[C@H](CCCN)NC(=O)[C@H](Cc1c[nH]c2ccccc12)NC(=O)[C@H](CCCN)N=C(N(C)C)N(C)C)C(C)C)C(=O)O [Api794, gu-O(WO)3RPVYOPRPRPPHPRL-OH] ({Orn(α-tetramethylguanidino)}-W[Orn]W[Orn]W[Orn]RPVY[Orn]PRPRPPHPRL-OH)
93%: dissociated Fragments: LV, large vesicles (P. aeruginosa DSM 1117; 256 µg/mL) | Ribosome clustering: +++, extremely clustered (P. aeruginosa DSM 1117; 512 µg/mL) | Fragments: LV, large vesicles (E. coli DSM 1103; 256 µg/mL) | Membrane: i, intact (E. coli DSM 1103; 512 µg/mL) | Vesicle release strong (E. coli DSM 1103; 512 µg/mL)
100%: Membrane: i, intact (P. aeruginosa DSM 1117; 16 µg/mL) | DNA/ribosomes relocalization: +++, extremely relocalized (P. aeruginosa DSM 1117; 256 µg/mL) | Ribosome clustering: +++, extremely clustered (P. aeruginosa DSM 1117; 256 µg/mL) | DNA/ribosomes relocalization: +++, extremely relocalized (P. aeruginosa DSM 1117; 512 µg/mL) | Vesicle release strong (E. coli DSM 1103; 16 µg/mL) | Membrane: i, intact (E. coli DSM 1103; 64 µg/mL)
73%: Ribosome clustering: +++, extremely clustered (P. aeruginosa DSM 1117; 64 µg/mL)
17%: Fragments: -, no (E. coli DSM 1103; 64 µg/mL) | Fragments: -, no (E. coli DSM 1103; 256 µg/mL) | Fragments: +++, long and thick (E. coli DSM 1103; 512 µg/mL) | Fragments: -, no (E. coli DSM 1103; 512 µg/mL)
83%: DNA/ribosomes relocalization: +++, extremely relocalized (P. aeruginosa DSM 1117; 64 µg/mL)
77%: dissociated Fragments: -, no (P. aeruginosa DSM 1117; 16 µg/mL)
79 ± 6%: remaining at 6 h, 0.5 g/L (P. aeruginosa elastase)
33%: Membrane: i, intact (E. coli DSM 1103; 16 µg/mL) | Fragments: ++, long and thin (E. coli DSM 1103; 64 µg/mL)
40%: DNA/ribosomes relocalization: -, no (P. aeruginosa DSM 1117; 16 µg/mL) | dissociated Fragments: -, no (P. aeruginosa DSM 1117; 512 µg/mL) | Fragments: +, small and thin (E. coli DSM 1103; 16 µg/mL)
10%: dissociated Fragments: +, small and thin (P. aeruginosa DSM 1117; 16 µg/mL) | DNA/ribosomes relocalization: ++, relocalized (P. aeruginosa DSM 1117; 64 µg/mL) | Ribosome clustering: ++, clustered (P. aeruginosa DSM 1117; 64 µg/mL)
32 µg/mL: MIC K. pneumoniae DSM 681 [2]
3%: DNA/ribosomes relocalization: +, starting (P. aeruginosa DSM 1117; 64 µg/mL) | DNA/ribosomes relocalization: -, no (P. aeruginosa DSM 1117; 64 µg/mL) | Ribosome clustering: -, no (P. aeruginosa DSM 1117; 64 µg/mL) | Vesicle release (P. aeruginosa DSM 1117; 256 µg/mL) | Fragments: LV, large vesicles (E. coli DSM 1103; 64 µg/mL) | Fragments: +++, long and thick (E. coli DSM 1103; 256 µg/mL) | Membrane: i, intact (E. coli DSM 1103; 256 µg/mL) | Cell: r, ruptured (E. coli DSM 1103; 512 µg/mL)
60%: dissociated Fragments: ++, long and thin (P. aeruginosa DSM 1117; 512 µg/mL)
87%: Vesicle release (P. aeruginosa DSM 1117; 16 µg/mL) | Cells spongy (P. aeruginosa DSM 1117; 512 µg/mL)
80%: Ribosome clustering: +, starting (P. aeruginosa DSM 1117; 16 µg/mL) | Membrane: b, broken (P. aeruginosa DSM 1117; 64 µg/mL) | Cells spongy (P. aeruginosa DSM 1117; 256 µg/mL) | dissociated Fragments: ++, long and thin (P. aeruginosa DSM 1117; 256 µg/mL)
7%: dissociated Fragments: -, no (P. aeruginosa DSM 1117; 256 µg/mL) | Ribosome clustering: ++, clustered (P. aeruginosa DSM 1117; 512 µg/mL) | Membrane: w, wrinkled (E. coli DSM 1103; 512 µg/mL)
97%: dissociated Fragments: LV, large vesicles (P. aeruginosa DSM 1117; 512 µg/mL) | Vesicle release strong (E. coli DSM 1103; 64 µg/mL) | Membrane: w, wrinkled (E. coli DSM 1103; 256 µg/mL) | Vesicle release strong (E. coli DSM 1103; 256 µg/mL) | Fragments: LV, large vesicles (E. coli DSM 1103; 512 µg/mL)
30%: dissociated Fragments: LV, large vesicles (P. aeruginosa DSM 1117; 64 µg/mL) | DNA/Ribosomes relocalized (E. coli DSM 1103; 512 µg/mL) | Fragments: ++, long and thin (E. coli DSM 1103; 512 µg/mL)
23%: DNA/ribosomes relocalization: ++, relocalized (P. aeruginosa DSM 1117; 16 µg/mL) | Fragments: ++, long and thin (E. coli DSM 1103; 16 µg/mL) | Fragments: +++, long and thick (E. coli DSM 1103; 64 µg/mL)
34%: Membrane: i, intact (P. aeruginosa DSM 1117; 256 µg/mL)
0%: Cells spongy (P. aeruginosa DSM 1117; 16 µg/mL) | DNA/ribosomes relocalization: +++, extremely relocalized (P. aeruginosa DSM 1117; 16 µg/mL) | Membrane: b, broken (P. aeruginosa DSM 1117; 16 µg/mL) | Membrane: r, ruptured (P. aeruginosa DSM 1117; 16 µg/mL) | Ribosome clustering: +++, extremely clustered (P. aeruginosa DSM 1117; 16 µg/mL) | Ribosome clustering: ++, clustered (P. aeruginosa DSM 1117; 16 µg/mL) | dissociated Fragments: LV, large vesicles (P. aeruginosa DSM 1117; 16 µg/mL) | Cells spongy (P. aeruginosa DSM 1117; 64 µg/mL) | DNA/ribosomes relocalization: ++, relocalized (P. aeruginosa DSM 1117; 256 µg/mL) | DNA/ribosomes relocalization: +, starting (P. aeruginosa DSM 1117; 256 µg/mL) | DNA/ribosomes relocalization: -, no (P. aeruginosa DSM 1117; 256 µg/mL) | Ribosome clustering: ++, clustered (P. aeruginosa DSM 1117; 256 µg/mL) | Ribosome clustering: +, starting (P. aeruginosa DSM 1117; 256 µg/mL) | Ribosome clustering: -, no (P. aeruginosa DSM 1117; 256 µg/mL) | DNA/ribosomes relocalization: ++, relocalized (P. aeruginosa DSM 1117; 512 µg/mL) | DNA/ribosomes relocalization: +, starting (P. aeruginosa DSM 1117; 512 µg/mL) | DNA/ribosomes relocalization: -, no (P. aeruginosa DSM 1117; 512 µg/mL) | Ribosome clustering: +, starting (P. aeruginosa DSM 1117; 512 µg/mL) | Ribosome clustering: -, no (P. aeruginosa DSM 1117; 512 µg/mL) | Vesicle release (P. aeruginosa DSM 1117; 512 µg/mL) | dissociated Fragments: +, small and thin (P. aeruginosa DSM 1117; 512 µg/mL) | Cell: r, ruptured (E. coli DSM 1103; 16 µg/mL) | DNA/Ribosomes relocalized (E. coli DSM 1103; 16 µg/mL) | Fragments: +++, long and thick (E. coli DSM 1103; 16 µg/mL) | Fragments: LV, large vesicles (E. coli DSM 1103; 16 µg/mL) | Cell: r, ruptured (E. coli DSM 1103; 64 µg/mL) | DNA/Ribosomes relocalized (E. coli DSM 1103; 64 µg/mL) | Membrane: w, wrinkled (E. coli DSM 1103; 64 µg/mL) | Cell: r, ruptured (E. coli DSM 1103; 256 µg/mL) | DNA/Ribosomes relocalized (E. coli DSM 1103; 256 µg/mL)
63%: dissociated Fragments: ++, long and thin (P. aeruginosa DSM 1117; 64 µg/mL)
37%: DNA/ribosomes relocalization: +, starting (P. aeruginosa DSM 1117; 16 µg/mL) | Fragments: -, no (E. coli DSM 1103; 16 µg/mL) | Fragments: ++, long and thin (E. coli DSM 1103; 256 µg/mL) | Fragments: +, small and thin (E. coli DSM 1103; 512 µg/mL)
47%: Membrane: r, ruptured (P. aeruginosa DSM 1117; 64 µg/mL)
27%: Fragments: +, small and thin (E. coli DSM 1103; 64 µg/mL)
20%: Ribosome clustering: -, no (P. aeruginosa DSM 1117; 16 µg/mL) | Membrane: i, intact (P. aeruginosa DSM 1117; 64 µg/mL) | Vesicle release (P. aeruginosa DSM 1117; 64 µg/mL) | dissociated Fragments: +, small and thin (P. aeruginosa DSM 1117; 64 µg/mL)
67%: Membrane: b, broken (P. aeruginosa DSM 1117; 256 µg/mL) | Membrane: r, ruptured (P. aeruginosa DSM 1117; 256 µg/mL) | Membrane: w, wrinkled (E. coli DSM 1103; 16 µg/mL)
43%: Fragments: +, small and thin (E. coli DSM 1103; 256 µg/mL)
64 µg/mL: MIC P. aeruginosa DSM 1117, high inoculum [1]
